Experimental data reported in patent publication US7335672B2, “Vanilloid receptor ligands and their use in treatments” (Amgen Inc., priority 2004, dated 2008).

Molecule CC(=O)Nc1nc2c(Oc3cc(-c4ccc(C(F)(F)F)cc4)nc(N4CCCC(O)C4)n3)cccc2s1 (centres unmarked) [Example 39] has a melting point of 198 °C.
With CS(=O)(=O)N1CCN(c2nc(Oc3cccc4[nH]c(=O)c(N)nc34)cc(-c3ccc(C(F)(F)F)cc3)n2)CC1 [Example 117, 3-amino-5-({2-[4-(methylsulfonyl)piperazin-1-yl]-6-[4-(trifluoromethyl)phenyl]pyrimidin-4-yl}oxy)quinoxalin-2(1H)-one] the melting point was > 300 °C.
Molecule CC(=O)Nc1nc2c(Oc3cc(-c4ccc(C(F)(F)F)cc4)nc(N4CCC(C(=O)O)CC4)n3)cccc2s1 [Example 42, 1-{4-{[2-(acetylamino)-1,3-benzothiazol-4-yl]oxy}-6-[4-(trifluoromethyl)phenyl]pyrimidin-2-yl}piperidine-4-carboxylic acid] has a melting point of 277 to 278 °C.
In the case of CS(=O)(=O)Nc1cccc(CNc2nc(Oc3cccc4[nH]c(=O)c(N)nc34)cc(-c3ccc(C(F)(F)F)cc3)n2)c1 [Example 116, N-{3-[({4-[(3-amino-2-oxo-1,2-dihydroquinoxalin-5-yl)oxy]-6-[4-(trifluoromethyl)phenyl]pyrimidin-2-yl}amino)methyl]phenyl}methanesulfonamide], the melting point is reported as > 300 °C.
Work on COCC(C)Nc1nc(Oc2cccc3[nH]c(=O)c(N)nc23)cc(-c2ccc(C(F)(F)F)cc2)n1 (centres unmarked) [Example 109] yielded a melting point of 241 °C.
Molecule CC(Nc1nc(Oc2cccc3[nH]c(=O)c(N)nc23)cc(-c2ccc(C(F)(F)F)cc2)n1)c1ccccn1 (centres unmarked) [Example 113] has a melting point of 289 °C.
Molecule CC(C)CN1CCCC[C@@H]1CNc1nc(Oc2cccc3[nH]c(=O)c(N)nc23)cc(-c2ccc(C(F)(F)F)cc2)n1 [Example 121, (R)-3-Amino-5-(2-((1-isobutylpiperidin-2-yl)methylamino)-6-(4-(trifluoromethyl)phenyl)pyrimidin-4-yloxy)quinoxalin-2(1H)-one] has a melting point of 229 °C.
In the case of CC(=O)Nc1nc2c(Oc3cc(-c4ccc(C(F)(F)F)cc4)nc(NCC4CCCN(C(=O)OC(C)(C)C)C4)n3)cccc2s1 (centres unmarked) [Example 70], the melting point is reported as 128 °C.
With CC(=O)Nc1nc2c(Oc3cc(-c4ccc(C(F)(F)F)cc4)nc(-c4cccnc4)n3)cccc2s1 [Example 9] the melting point was 268 to 270 °C.
Work on CC(=O)Nc1nc2c(Oc3cc(-c4ccc(C(F)(F)F)cc4)nc(N4CCN(C(=O)OC(C)(C)C)CC4)n3)cccc2s1 [Example 34, tert-Butyl 4-(4-(2-acetamidobenzo[d]thiazol-4-yloxy)-6-(4-(trifluoromethyl)phenyl)pyrimidin-2-yl)piperazine-1-carboxylate] yielded a melting point of 211 °C.
Molecule CC(C)CN1CCCC[C@H]1CNc1nc(Oc2cccc3[nH]c(=O)c(N)nc23)cc(-c2ccc(C(F)(F)F)cc2)n1 [Example 120, (S)-3-Amino-5-(2-((1-isobutylpiperidin-2-yl)methylamino)-6-(4-(trifluoromethyl)phenyl)pyrimidin-4-yloxy)quinoxalin-2(1H)-one] has a melting point of 228 °C.
Work on CC(=O)Nc1nc2c(Oc3cc(-c4ccc(C(F)(F)F)cc4)nc(NC[C@@H]4CCCN4C(=O)OC(C)(C)C)n3)cccc2s1 [Example 71, tert-butyl (2S)-2-[({4-{[2-(acetylamino)-1,3-benzothiazol-4-yl]oxy}-6-[4-(trifluoromethyl)phenyl]pyrimidin-2-yl}amino)methyl]pyrrolidine-1-carboxylate] yielded a melting point of 132 °C.
COC[C@H](C)Nc1nc(Oc2cccc3[nH]c(=O)c(N)nc23)cc(-c2ccc(C(F)(F)F)cc2)n1 [Example 114] gave a melting point of 243 °C.
CC(=O)Nc1nc2c(Oc3cc(-c4ccc(C(F)(F)F)cc4)nc(NCc4cccnc4)n3)cccc2s1 [Example 53] gave a melting point of 240 °C.
